Source: ChEMBL document CHEMBL1909046, “DrugMatrix in vitro pharmacology data”

Key:
[1] = biological target: Beta-1 adrenergic receptor (Homo sapiens, UniProt P08588); assay: DRUGMATRIX: Adrenergic beta1 radioligand binding (ligand: [125I] Cyanopindolol); assay type: cell membranes, CHO-K1, Membrane; details: cho-k1; Not Active = under 50% inhibition at 10 µM
[2] = biological target: Beta-3 adrenergic receptor (Homo sapiens, UniProt P13945); assay: DRUGMATRIX: Adrenergic beta3 radioligand binding (ligand: [125I] Cyanopindolol); assay type: cell membranes, HEK293, Membrane; details: hek293; Not Active = under 50% inhibition at 10 µM
[3] = DRUGMATRIX: Sigma2 radioligand binding (ligand: [3H] Ifenprodil); assay type: cell membranes, Rattus norvegicus, Wistar, Brain, Membrane; details: Not Active = under 50% inhibition at 10 µM
Melanocortin receptor 5 = Melanocortin receptor 5 (Homo sapiens, UniProt P33032); assay type: cell membranes, HEK293, Membrane; details: hek293; further: in other assays of this panel Not Active means under 50% inhibition at 10 µM
Progesterone receptor = biological target: T1, Progesterone receptor (Bos taurus, UniProt Q690N0); assay: DRUGMATRIX: Progesterone radioligand binding (ligand: [3H] R-5020); assay type: tissue-based, Uterus; details: Not Active = under 50% inhibition at 10 µM
T1 sequence (Q690N0 whole entry): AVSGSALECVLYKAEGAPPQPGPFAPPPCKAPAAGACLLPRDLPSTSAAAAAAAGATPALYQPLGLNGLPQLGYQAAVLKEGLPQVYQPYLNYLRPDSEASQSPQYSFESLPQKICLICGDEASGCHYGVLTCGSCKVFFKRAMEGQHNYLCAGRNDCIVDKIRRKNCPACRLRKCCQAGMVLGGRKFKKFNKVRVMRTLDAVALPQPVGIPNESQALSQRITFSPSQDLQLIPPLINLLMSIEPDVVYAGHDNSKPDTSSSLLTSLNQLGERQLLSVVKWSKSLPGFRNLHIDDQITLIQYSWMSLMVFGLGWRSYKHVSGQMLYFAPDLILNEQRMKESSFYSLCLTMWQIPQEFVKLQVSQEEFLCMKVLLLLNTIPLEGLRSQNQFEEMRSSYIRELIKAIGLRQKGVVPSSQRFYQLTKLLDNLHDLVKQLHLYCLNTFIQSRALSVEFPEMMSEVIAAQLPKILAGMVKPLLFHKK

Cytochrome P450 2C19 = Cytochrome P450 2C19 (Homo sapiens, UniProt P33261); details: bti-tn-5b1-4; further: in other assays of this panel Not Active means under 50% inhibition at 10 µM
Sequence of Cytochrome P450 2C19 (P33261 whole entry): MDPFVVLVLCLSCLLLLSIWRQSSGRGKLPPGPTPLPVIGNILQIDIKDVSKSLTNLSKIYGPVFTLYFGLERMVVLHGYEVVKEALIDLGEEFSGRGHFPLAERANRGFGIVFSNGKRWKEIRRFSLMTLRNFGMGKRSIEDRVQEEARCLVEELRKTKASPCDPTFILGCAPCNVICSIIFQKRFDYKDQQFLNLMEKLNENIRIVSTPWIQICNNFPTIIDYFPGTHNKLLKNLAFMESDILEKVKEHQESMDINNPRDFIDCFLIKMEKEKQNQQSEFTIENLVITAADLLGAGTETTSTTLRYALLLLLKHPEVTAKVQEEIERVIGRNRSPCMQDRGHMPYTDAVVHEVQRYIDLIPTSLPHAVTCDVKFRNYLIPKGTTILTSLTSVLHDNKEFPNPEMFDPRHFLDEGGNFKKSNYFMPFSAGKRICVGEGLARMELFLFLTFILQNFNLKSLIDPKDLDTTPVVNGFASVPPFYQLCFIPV

Sequence of Melanocortin receptor 5 (P33032 whole entry): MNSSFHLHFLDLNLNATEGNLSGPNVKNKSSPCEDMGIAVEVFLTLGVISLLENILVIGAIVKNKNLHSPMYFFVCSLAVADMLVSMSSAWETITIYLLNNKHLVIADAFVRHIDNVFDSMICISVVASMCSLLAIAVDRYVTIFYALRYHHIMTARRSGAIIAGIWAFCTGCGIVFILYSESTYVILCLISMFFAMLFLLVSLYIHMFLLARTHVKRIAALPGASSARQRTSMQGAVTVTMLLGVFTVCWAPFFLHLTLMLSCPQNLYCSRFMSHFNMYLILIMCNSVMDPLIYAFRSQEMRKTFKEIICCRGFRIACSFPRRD
Sequence of Beta-1 adrenergic receptor (P08588 whole entry): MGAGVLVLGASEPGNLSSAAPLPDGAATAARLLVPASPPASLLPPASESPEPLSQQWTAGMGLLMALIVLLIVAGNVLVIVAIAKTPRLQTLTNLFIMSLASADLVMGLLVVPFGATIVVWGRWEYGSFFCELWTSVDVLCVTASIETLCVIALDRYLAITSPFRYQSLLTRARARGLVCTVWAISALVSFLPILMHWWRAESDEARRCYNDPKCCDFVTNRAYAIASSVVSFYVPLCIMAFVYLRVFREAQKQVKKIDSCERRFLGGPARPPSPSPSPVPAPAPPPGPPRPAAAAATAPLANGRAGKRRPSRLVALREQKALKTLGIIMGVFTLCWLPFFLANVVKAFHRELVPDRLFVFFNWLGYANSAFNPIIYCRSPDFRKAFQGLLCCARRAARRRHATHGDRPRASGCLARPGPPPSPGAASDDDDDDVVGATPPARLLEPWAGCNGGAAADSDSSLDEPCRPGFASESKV
Sequence of Beta-3 adrenergic receptor (P13945 whole entry): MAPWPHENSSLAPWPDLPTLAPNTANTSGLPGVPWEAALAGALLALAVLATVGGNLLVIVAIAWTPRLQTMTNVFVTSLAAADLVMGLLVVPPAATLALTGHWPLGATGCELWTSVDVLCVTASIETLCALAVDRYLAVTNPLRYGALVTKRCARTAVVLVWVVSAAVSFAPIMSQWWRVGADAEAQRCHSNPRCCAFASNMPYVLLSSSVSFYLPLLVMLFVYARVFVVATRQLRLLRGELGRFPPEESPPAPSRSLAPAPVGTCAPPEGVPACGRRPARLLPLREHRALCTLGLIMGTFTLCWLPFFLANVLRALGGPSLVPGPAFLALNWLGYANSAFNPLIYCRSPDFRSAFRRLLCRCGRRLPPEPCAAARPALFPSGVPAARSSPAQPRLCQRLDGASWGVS

NC(=O)NC(=O)Cc1ccccc1 [PHENACEMIDE]
Not Active: IC50 [1] | IC50 [2] | IC50 [3] | Ki [3] | IC50 (Melanocortin receptor 5) | IC50 (Progesterone receptor) | IC50 (Cytochrome P450 2C19) | Ki (Cytochrome P450 2C19)

Cc1cc(C(C)(C)C)c(O)c(C)c1CC1=NCCN1 [OXYMETAZOLINE]
Not Active: IC50 [1] | IC50 [2] | IC50 [3] | Ki [3] | IC50 (Melanocortin receptor 5) | IC50 (Progesterone receptor) | IC50 (Cytochrome P450 2C19) | Ki (Cytochrome P450 2C19)

CC(CN1c2ccccc2Sc2ccccc21)N(C)C (centres undefined) [PROMETHAZINE]
Not Active: IC50 [1] | IC50 [2] | IC50 [3] | Ki [3] | IC50 (Melanocortin receptor 5) | IC50 (Progesterone receptor) | IC50 (Cytochrome P450 2C19) | Ki (Cytochrome P450 2C19)

NC(N)=Nc1nc(CSCCC(N)=NS(N)(=O)=O)cs1 [FAMOTIDINE]
Not Active: IC50 [1] | IC50 [2] | IC50 [3] | Ki [3] | IC50 (Melanocortin receptor 5) | IC50 (Progesterone receptor) | IC50 (Cytochrome P450 2C19) | Ki (Cytochrome P450 2C19)

C[C@]12CC[C@@H](O)C[C@@H]1CC[C@@H]1[C@@H]2CC[C@]2(C)C(=O)CC[C@@H]12 [ANDROSTERONE]
Not Active: IC50 [1] | IC50 [2] | IC50 [3] | Ki [3] | IC50 (Melanocortin receptor 5) | IC50 (Progesterone receptor) | IC50 (Cytochrome P450 2C19) | Ki (Cytochrome P450 2C19)

ClC1=C(Cl)[C@]2(Cl)[C@@H]3[C@@H]4C[C@@H]([C@H]5O[C@@H]45)[C@@H]3[C@@]1(Cl)C2(Cl)Cl [DIELDRIN]
Not Active: IC50 [1] | IC50 [2] | IC50 [3] | Ki [3] | IC50 (Melanocortin receptor 5) | IC50 (Progesterone receptor) | IC50 (Cytochrome P450 2C19) | Ki (Cytochrome P450 2C19)

CC(=O)[C@]1(O)Cc2c(O)c3c(c(O)c2[C@@H](O[C@H]2C[C@H](N)[C@H](O)[C@H](C)O2)C1)C(=O)c1ccccc1C3=O [IDARUBICIN]
Not Active: IC50 [1] | IC50 [2] | IC50 [3] | Ki [3] | IC50 (Melanocortin receptor 5) | IC50 (Progesterone receptor) | IC50 (Cytochrome P450 2C19) | Ki (Cytochrome P450 2C19)

COC(=O)Nc1nc2ccc(Sc3ccccc3)cc2[nH]1 [FENBENDAZOLE]
Not Active: IC50 [1] | IC50 [2] | IC50 [3] | Ki [3] | IC50 (Melanocortin receptor 5) | IC50 (Progesterone receptor) | IC50 (Cytochrome P450 2C19) | Ki (Cytochrome P450 2C19)

Cc1ccnc2c1NC(=O)c1cccnc1N2C1CC1 [NEVIRAPINE]
Not Active: IC50 [1] | IC50 [2] | IC50 [3] | Ki [3] | IC50 (Melanocortin receptor 5) | IC50 (Progesterone receptor) | IC50 (Cytochrome P450 2C19) | Ki (Cytochrome P450 2C19)

COPPER(II) OXIDE
Not Active: IC50 [1] | Ki [1] | IC50 [2] | Ki [2] | IC50 [3] | Ki [3] | IC50 (Melanocortin receptor 5) | Ki (Melanocortin receptor 5) | IC50 (Progesterone receptor) | Ki (Progesterone receptor) | IC50 (Cytochrome P450 2C19) | Ki (Cytochrome P450 2C19)

OC[C@H]1O[C@@H]2O[C@H]3[C@H](O)[C@@H](O)[C@@H](O[C@H]4[C@H](O)[C@@H](O)[C@@H](O[C@H]5[C@H](O)[C@@H](O)[C@@H](O[C@H]6[C@H](O)[C@@H](O)[C@@H](O[C@H]7[C@H](O)[C@@H](O)[C@@H](O[C@H]8[C@H](O)[C@@H](O)[C@@H](O[C@H]1[C@H](O)[C@H]2O)O[C@@H]8CO)O[C@@H]7CO)O[C@@H]6CO)O[C@@H]5CO)O[C@@H]4CO)O[C@@H]3CO [BETADEX]
Not Active: IC50 [1] | IC50 [2] | IC50 [3] | Ki [3] | IC50 (Melanocortin receptor 5) | IC50 (Progesterone receptor) | IC50 (Cytochrome P450 2C19) | Ki (Cytochrome P450 2C19)

O=C(O)CO [GLYCOLIC ACID]
Not Active: IC50 [1] | IC50 [2] | IC50 [3] | Ki [3] | IC50 (Melanocortin receptor 5) | IC50 (Progesterone receptor) | IC50 (Cytochrome P450 2C19) | Ki (Cytochrome P450 2C19)

COc1cc(NC(C)CCCN)c2ncccc2c1 (centres undefined) [PRIMAQUINE]
Not Active: IC50 [1] | IC50 [2] | IC50 [3] | Ki [3] | IC50 (Melanocortin receptor 5) | IC50 (Progesterone receptor) | IC50 (Cytochrome P450 2C19) | Ki (Cytochrome P450 2C19)

COc1ccc(Cl)cc1C(=O)NCCc1ccc(S(=O)(=O)NC(=O)NC2CCCCC2)cc1 [GLYBURIDE]
Not Active: IC50 [1] | IC50 [2] | IC50 [3] | Ki [3] | IC50 (Melanocortin receptor 5) | IC50 (Progesterone receptor) | IC50 (Cytochrome P450 2C19) | Ki (Cytochrome P450 2C19)

CCO [ALCOHOL]
Not Active: IC50 [1] | IC50 [2] | IC50 [3] | Ki [3] | IC50 (Melanocortin receptor 5) | IC50 (Progesterone receptor) | IC50 (Cytochrome P450 2C19) | Ki (Cytochrome P450 2C19)

CC(C)(c1ccc(O)cc1)c1ccc(O)cc1 [BISPHENOL A]
Not Active: IC50 [1] | IC50 [2] | IC50 [3] | Ki [3] | IC50 (Melanocortin receptor 5) | IC50 (Progesterone receptor) | IC50 (Cytochrome P450 2C19) | Ki (Cytochrome P450 2C19)

CC12CCC(CC1=O)C2(C)C (centres undefined) [CAMPHOR]
Not Active: IC50 [1] | IC50 [2] | IC50 [3] | Ki [3] | IC50 (Melanocortin receptor 5) | IC50 (Progesterone receptor) | IC50 (Cytochrome P450 2C19) | Ki (Cytochrome P450 2C19)

O=C(O)c1ccccc1 [BENZOIC ACID]
Not Active: IC50 [1] | IC50 [2] | IC50 [3] | Ki [3] | IC50 (Melanocortin receptor 5) | IC50 (Progesterone receptor) | IC50 (Cytochrome P450 2C19) | Ki (Cytochrome P450 2C19)

Oc1ncnc2[nH]ncc12 [ALLOPURINOL]
Not Active: IC50 [1] | IC50 [2] | IC50 [3] | Ki [3] | IC50 (Melanocortin receptor 5) | IC50 (Progesterone receptor) | IC50 (Cytochrome P450 2C19) | Ki (Cytochrome P450 2C19)

NC(=O)CN1CCCC1=O
Not Active: IC50 [1] | IC50 [2] | IC50 [3] | Ki [3] | IC50 (Melanocortin receptor 5) | IC50 (Progesterone receptor) | IC50 (Cytochrome P450 2C19) | Ki (Cytochrome P450 2C19)

C=CCO [ALLYL ALCOHOL]
Not Active: IC50 [1] | IC50 [2] | IC50 [3] | Ki [3] | IC50 (Melanocortin receptor 5) | IC50 (Progesterone receptor) | IC50 (Cytochrome P450 2C19) | Ki (Cytochrome P450 2C19)

CCN1CCN(C(=O)N[C@@H](C(=O)N[C@@H]2C(=O)N3[C@@H]2SC(C)(C)[C@@H]3C(=O)O)c2ccccc2)C(=O)C1=O [PIPERACILLIN]
Not Active: IC50 [1] | IC50 [2] | IC50 [3] | Ki [3] | IC50 (Melanocortin receptor 5) | IC50 (Progesterone receptor) | IC50 (Cytochrome P450 2C19) | Ki (Cytochrome P450 2C19)

CCCCCCNC(=O)n1cc(F)c(=O)[nH]c1=O [CARMOFUR]
Not Active: IC50 [1] | IC50 [2] | IC50 [3] | Ki [3] | IC50 (Melanocortin receptor 5) | IC50 (Progesterone receptor) | IC50 (Cytochrome P450 2C19) | Ki (Cytochrome P450 2C19)

Clc1cc(Cl)c(OCC#CI)cc1Cl [HALOPROGIN]
Not Active: IC50 [1] | IC50 [2] | IC50 [3] | Ki [3] | IC50 (Melanocortin receptor 5) | IC50 (Progesterone receptor) | IC50 (Cytochrome P450 2C19) | Ki (Cytochrome P450 2C19)

O=c1[nH]cnc2c1ncn2[C@H]1CC[C@@H](CO)O1 [DIDANOSINE]
Not Active: IC50 [1] | IC50 [2] | IC50 [3] | Ki [3] | IC50 (Melanocortin receptor 5) | IC50 (Progesterone receptor) | IC50 (Cytochrome P450 2C19) | Ki (Cytochrome P450 2C19)
